The values that follow come from patent US20210228562A1, “IRAK DEGRADERS AND USES THEREOF” (Kymera Therapeutics, Inc., priority 2019, published 2021).

As usually defined, the DC50 is the concentration at which degradation of the target reaches its halfway point. As usually defined, the IC50 is the point on the concentration scale where inhibition reaches its midpoint. A high value points to a need for much substance.

Bounds are passed on as bounds.

One test addresses T1, IRAK4 (Homo sapiens, UniProt Q9NWZ3).
T1 construct: endogenous in cells; host or cells: OCI-LY10
T1 sequence (Q9NWZ3 1-460): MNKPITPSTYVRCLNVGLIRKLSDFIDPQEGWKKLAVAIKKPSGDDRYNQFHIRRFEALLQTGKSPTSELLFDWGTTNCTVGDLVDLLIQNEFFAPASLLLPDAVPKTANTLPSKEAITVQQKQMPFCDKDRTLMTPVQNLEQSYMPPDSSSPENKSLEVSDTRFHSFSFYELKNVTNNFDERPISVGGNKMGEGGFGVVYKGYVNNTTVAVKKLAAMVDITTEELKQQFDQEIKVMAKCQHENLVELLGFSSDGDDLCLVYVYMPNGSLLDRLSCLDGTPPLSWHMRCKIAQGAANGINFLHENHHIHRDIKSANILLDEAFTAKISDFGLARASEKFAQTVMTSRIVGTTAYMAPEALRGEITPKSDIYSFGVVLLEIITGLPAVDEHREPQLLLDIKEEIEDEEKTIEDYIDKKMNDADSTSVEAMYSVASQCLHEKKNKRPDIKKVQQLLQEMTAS
Description: IRAK4 MSD Degradation in OCI-LY10. The following applies: OCI-LY10 cells, 24 hrs incubation; read-out: IRAK4 degradation in OCI-LY10 at 24 hrs: DC50. Type of test: cell-based. Put shortly: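 OCI-LY10 cells treated 4 to 24 h at 37 °C with an 8-point 1:3 series from a 1–10 μM top concentration. IRAK4 remaining in RIPA lysates quantified by sandwich MSD immunoassay (two anti-IRAK4 antibodies, SULFO-TAG read-out). DC50 from a three-parameter logistic fit.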
For `CC(C)(O)c1cc2nc([C@H]3CC[C@H](CN4CC5(CC(CCNc6cccc7c6C(=O)N(C6CCC(=O)NC6=O)C7=O)C5)C4)CC3)sc2cc1NC(=O)c1cccc(C(F)F)n1` (some centres unmarked) [I-47], the DC50 was less than 50 nM.
As to `CN(C[C@H]1CC[C@H](c2nc3cc(C(C)(C)O)c(NC(=O)c4cccc(C(F)(F)F)n4)cc3s2)CC1)[C@H]1CC[C@@H](CNc2cccc3c2C(=O)N(C2CCC(=O)NC2=O)C3=O)CC1` (some centres unmarked) [I-48], the DC50 was more than 1000 nM.
For `CC1(C)OC2(C)c3ccccc3CCN2c2cc3sc([C@H]4CC[C@H](CN5CC6(CC(CCNc7cccc8c7C(=O)N(C7CCC(=O)NC7=O)C8=O)C6)C5)CC4)nc3cc21` (some centres unmarked) [I-49], the DC50 was more than 1000 nM.
The same measure, in the same setting: for `CC(C)(O)c1cc2nc([C@H]3CC[C@H](CN4CC5(CC(CCNc6cccc7c6C(=O)N(C6CCC(=O)NC6=O)C7=O)C5)C4)CC3)sc2cc1NC(=O)c1cccc(C(C)(F)F)c1` (some centres unmarked) [I-50] the value was 500 to 1000 nM.
Still for that read-out and setting: for `CC(C)(O)c1cc2nc([C@H]3CC[C@H](CN4CC5(CC(CCNc6cccc7c6C(=O)N(C6CCC(=O)NC6=O)C7=O)C5)C4)CC3)sc2cc1NC(=O)c1cccc(C(F)(F)F)c1` (some centres unmarked) [I-53] the value was 100 to 500 nM.
On the same count and under the same terms, the result for `CC(C)(O)c1cc2nc([C@H]3CC[C@H](CN4CC5(CC(CCNc6cccc7c6C(=O)N(C6CCC(=O)NC6=O)C7=O)C5)C4)CC3)sc2cc1NC(=O)c1ccnc(C(F)(F)F)n1` (some centres unmarked) [I-54] reads 100 to 500 nM.
As for `CC(C)(O)c1cc2nc([C@H]3CC[C@H](CN4CC5(CC(CCNc6cccc7c6C(=O)N(C6CCC(=O)NC6=O)C7=O)C5)C4)CC3)sc2cc1NC(=O)c1ccc(C(F)(F)F)nn1` (some centres unmarked) [I-55], the DC50 was more than 1000 nM.
`CC(C)(O)c1cc2nc([C@H]3CC[C@H](CN4CCC5(CC4)CC4(CC(CCNc6cccc7c6C(=O)N(C6CCC(=O)NC6=O)C7=O)C4)C5)CC3)sc2cc1NC(=O)c1cccc(C(F)(F)F)n1` (some centres unmarked) [I-59]: the DC50 fell in the range of 100 to 500 nM.

A further test relates to OCI-LY10 cells. Description: CTG Cell Viability Assay - OCI-LY10. As to conditions: Homo sapiens, 96 h, CellTiter-Glo, 4 days incubation. The format is cell-based. The method, then:
Compound-mediated viability effect on OCI-LY10 or SUDHL-2 was quantitatively determined using the CellTiter-Glo® Luminescent Cell Viability Assay kit from Promega (Catalog number G7570) following manufacturer's recommended procedures. Briefly, OCI-LY10 or SUDHL-2 cells were seeded into 384 well plates (Grenier Bio-One, Catalog number 781080) with a density of 10,000 cells per well. Compounds were then added to the assay plate with final top concentration of 10 μM and 1:3 dilution series with total of 9 doses. The final DMSO concentration was normalized to 0.2%. The assay plates were incubated at 37° C. for 4 days under 5% CO2. Then the assay plate was equilibrated at room temperature for 10 minutes. To determine cell viability, 30 μL CellTiter Glo reagent was added to each well and the assay plate was centrifuged at 1000 rpm for 30 second, incubated at room temperature for 10 min, and analyzed by detecting the luminescence using a multimode plate reader (EnVision 2105, PerkinElmer). The data was then analyzed by software Prism 7.0 from GraphPad and the dose response curves were fit using a three-parameter logistic equation to calculate IC50.
(In general: In ATP-based viability assays light output follows the ATP content of the culture.)
As for `CC(C)(O)c1cc2nc([C@H]3CC[C@H](CN4CC5(CC(CCNc6cccc7c6C(=O)N(C6CCC(=O)NC6=O)C7=O)C5)C4)CC3)sc2cc1NC(=O)c1cccc(C(F)F)n1` (some centres unmarked) [I-47], the IC50 was less than 50 nM.
Still for that read-out and setting: the result for `CN(C[C@H]1CC[C@H](c2nc3cc(C(C)(C)O)c(NC(=O)c4cccc(C(F)(F)F)n4)cc3s2)CC1)[C@H]1CC[C@@H](CNc2cccc3c2C(=O)N(C2CCC(=O)NC2=O)C3=O)CC1` (some centres unmarked) [I-48] reads 50 to 100 nM; that for `CC1(C)OC2(C)c3ccccc3CCN2c2cc3sc([C@H]4CC[C@H](CN5CC6(CC(CCNc7cccc8c7C(=O)N(C7CCC(=O)NC7=O)C8=O)C6)C5)CC4)nc3cc21` (some centres unmarked) [I-49], 50 to 100 nM; that for `CC(C)(O)c1cc2nc([C@H]3CC[C@H](CN4CC5(CC(CCNc6cccc7c6C(=O)N(C6CCC(=O)NC6=O)C7=O)C5)C4)CC3)sc2cc1NC(=O)c1cccc(C(C)(F)F)c1` (some centres unmarked) [I-50], less than 50 nM.
`CC(C)(O)c1cc2nc([C@H]3CC[C@H](CN4CC5(CC(CCNc6cccc7c6C(=O)N(C6CCC(=O)NC6=O)C7=O)C5)C4)CC3)sc2cc1NC(=O)c1cccc(C(F)(F)F)c1` (some centres unmarked) [I-53]: the IC50 is less than 50 nM.
Still for that read-out and setting: for `CC(C)(O)c1cc2nc([C@H]3CC[C@H](CN4CC5(CC(CCNc6cccc7c6C(=O)N(C6CCC(=O)NC6=O)C7=O)C5)C4)CC3)sc2cc1NC(=O)c1ccnc(C(F)(F)F)n1` (some centres unmarked) [I-54] the value was less than 50 nM.
Same read-out and setting: for `CC(C)(O)c1cc2nc([C@H]3CC[C@H](CN4CC5(CC(CCNc6cccc7c6C(=O)N(C6CCC(=O)NC6=O)C7=O)C5)C4)CC3)sc2cc1NC(=O)c1ccc(C(F)(F)F)nn1` (some centres unmarked) [I-55] the value was less than 50 nM; for `CC(C)(O)c1cc2nc([C@H]3CC[C@H](CN4CCC5(CC4)CC4(CC(CCNc6cccc7c6C(=O)N(C6CCC(=O)NC6=O)C7=O)C4)C5)CC3)sc2cc1NC(=O)c1cccc(C(F)(F)F)n1` (some centres unmarked) [I-59], 100 to 500 nM.

The target in a further test is T2, Ikaros (protein product of gene IKZF1) (Homo sapiens, UniProt Q13422+Q96SW2).
T2 construct: endogenous in cells; host or cells: OCI-LY10
T2 sequence (Q13422 whole entry): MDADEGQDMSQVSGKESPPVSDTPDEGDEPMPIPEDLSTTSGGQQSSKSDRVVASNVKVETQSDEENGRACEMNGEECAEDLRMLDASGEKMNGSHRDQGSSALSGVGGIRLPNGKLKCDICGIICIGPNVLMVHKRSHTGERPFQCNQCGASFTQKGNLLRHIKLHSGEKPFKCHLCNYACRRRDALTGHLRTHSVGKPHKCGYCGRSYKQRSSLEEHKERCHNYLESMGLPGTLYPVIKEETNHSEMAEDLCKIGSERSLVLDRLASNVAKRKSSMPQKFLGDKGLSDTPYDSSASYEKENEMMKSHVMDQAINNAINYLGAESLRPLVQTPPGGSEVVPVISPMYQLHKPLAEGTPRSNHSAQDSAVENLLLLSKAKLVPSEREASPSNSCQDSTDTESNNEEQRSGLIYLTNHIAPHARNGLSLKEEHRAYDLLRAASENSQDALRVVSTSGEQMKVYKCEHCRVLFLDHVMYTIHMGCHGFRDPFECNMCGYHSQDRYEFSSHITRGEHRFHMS
T2 sequence (Q96SW2 whole entry): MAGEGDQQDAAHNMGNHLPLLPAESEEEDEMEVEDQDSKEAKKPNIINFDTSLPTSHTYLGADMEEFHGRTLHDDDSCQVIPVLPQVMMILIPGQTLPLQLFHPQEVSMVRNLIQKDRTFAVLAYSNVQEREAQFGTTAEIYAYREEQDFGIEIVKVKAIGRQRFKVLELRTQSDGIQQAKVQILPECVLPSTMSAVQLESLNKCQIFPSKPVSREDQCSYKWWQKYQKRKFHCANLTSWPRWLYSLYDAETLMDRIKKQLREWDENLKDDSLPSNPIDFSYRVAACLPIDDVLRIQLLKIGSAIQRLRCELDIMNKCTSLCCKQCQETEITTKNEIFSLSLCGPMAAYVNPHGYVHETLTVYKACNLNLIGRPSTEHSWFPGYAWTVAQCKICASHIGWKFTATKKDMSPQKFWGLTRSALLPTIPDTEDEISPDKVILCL
T2 sequence (Q16531 whole entry partner): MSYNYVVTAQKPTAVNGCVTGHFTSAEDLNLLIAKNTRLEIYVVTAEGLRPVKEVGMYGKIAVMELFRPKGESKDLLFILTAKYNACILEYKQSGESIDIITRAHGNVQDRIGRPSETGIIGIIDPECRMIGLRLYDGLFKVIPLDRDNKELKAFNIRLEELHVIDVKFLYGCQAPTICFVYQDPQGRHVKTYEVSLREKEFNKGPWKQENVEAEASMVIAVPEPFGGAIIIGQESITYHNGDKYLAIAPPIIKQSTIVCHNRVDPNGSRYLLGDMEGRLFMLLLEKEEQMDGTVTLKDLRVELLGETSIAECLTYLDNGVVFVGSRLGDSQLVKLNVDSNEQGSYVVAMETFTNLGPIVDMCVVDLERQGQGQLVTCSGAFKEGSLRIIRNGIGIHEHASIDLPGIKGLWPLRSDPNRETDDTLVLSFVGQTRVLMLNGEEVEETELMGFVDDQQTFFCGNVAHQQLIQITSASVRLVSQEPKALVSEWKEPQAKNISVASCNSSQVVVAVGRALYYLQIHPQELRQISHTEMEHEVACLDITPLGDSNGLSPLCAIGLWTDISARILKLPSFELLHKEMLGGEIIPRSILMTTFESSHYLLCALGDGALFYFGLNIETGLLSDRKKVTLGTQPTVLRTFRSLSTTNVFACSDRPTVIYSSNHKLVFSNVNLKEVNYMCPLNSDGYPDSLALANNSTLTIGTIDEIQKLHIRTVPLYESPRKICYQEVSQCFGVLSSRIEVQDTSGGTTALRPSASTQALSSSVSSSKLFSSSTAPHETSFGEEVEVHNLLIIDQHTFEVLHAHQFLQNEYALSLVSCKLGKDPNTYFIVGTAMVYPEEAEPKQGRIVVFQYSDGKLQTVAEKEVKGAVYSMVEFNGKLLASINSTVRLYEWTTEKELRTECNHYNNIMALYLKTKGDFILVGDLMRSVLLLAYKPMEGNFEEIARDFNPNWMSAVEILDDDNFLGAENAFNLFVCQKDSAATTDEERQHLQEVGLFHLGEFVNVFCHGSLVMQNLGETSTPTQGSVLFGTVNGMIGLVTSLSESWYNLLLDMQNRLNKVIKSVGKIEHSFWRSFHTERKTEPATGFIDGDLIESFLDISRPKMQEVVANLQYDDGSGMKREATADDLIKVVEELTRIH
Description: Quantification of Ikaros degradation in OCI-LY10 cells (quantitative immunoblotting). Type of test: cell-based. As to conditions: 6 h treatment. Put shortly:
(§1)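 OCI-LY10 cells (2×10^6/well) treated 6 h with listed compound concentrations. Lysates immunoblotted with fluorescent secondaries for Ikaros (D6N9Y) or Aiolos (D1C1E). Signal taken relative to β-actin and normalized to DMSO control.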
Background: A western blot detects proteins with antibodies after separation by electrophoresis.
As for `CC(C)(O)c1cc2nc([C@H]3CC[C@H](CN4CC5(CC(CCNc6cccc7c6C(=O)N(C6CCC(=O)NC6=O)C7=O)C5)C4)CC3)sc2cc1NC(=O)c1cccc(C(F)F)n1` (some centres unmarked) [I-47], the DC50 was less than 50 nM.
`CN(C[C@H]1CC[C@H](c2nc3cc(C(C)(C)O)c(NC(=O)c4cccc(C(F)(F)F)n4)cc3s2)CC1)[C@H]1CC[C@@H](CNc2cccc3c2C(=O)N(C2CCC(=O)NC2=O)C3=O)CC1` (some centres unmarked) [I-48] had a DC50 of less than 50 nM.
As to `CC1(C)OC2(C)c3ccccc3CCN2c2cc3sc([C@H]4CC[C@H](CN5CC6(CC(CCNc7cccc8c7C(=O)N(C7CCC(=O)NC7=O)C8=O)C6)C5)CC4)nc3cc21` (some centres unmarked) [I-49], the 50% degradation concentration (DC50) is less than 50 nM.
Still for that read-out and setting: for `CC(C)(O)c1cc2nc([C@H]3CC[C@H](CN4CC5(CC(CCNc6cccc7c6C(=O)N(C6CCC(=O)NC6=O)C7=O)C5)C4)CC3)sc2cc1NC(=O)c1cccc(C(C)(F)F)c1` (some centres unmarked) [I-50] the value was less than 50 nM; for `CC(C)(O)c1cc2nc([C@H]3CC[C@H](CN4CC5(CC(CCNc6cccc7c6C(=O)N(C6CCC(=O)NC6=O)C7=O)C5)C4)CC3)sc2cc1NC(=O)c1cccc(C(F)(F)F)c1` (some centres unmarked) [I-53], less than 50 nM.
The same measure, in the same setting: for `CC(C)(O)c1cc2nc([C@H]3CC[C@H](CN4CC5(CC(CCNc6cccc7c6C(=O)N(C6CCC(=O)NC6=O)C7=O)C5)C4)CC3)sc2cc1NC(=O)c1ccnc(C(F)(F)F)n1` (some centres unmarked) [I-54] the value was less than 50 nM; for `CC(C)(O)c1cc2nc([C@H]3CC[C@H](CN4CC5(CC(CCNc6cccc7c6C(=O)N(C6CCC(=O)NC6=O)C7=O)C5)C4)CC3)sc2cc1NC(=O)c1ccc(C(F)(F)F)nn1` (some centres unmarked) [I-55], less than 50 nM.
On the same count and under the same terms, for `CC(C)(O)c1cc2nc([C@H]3CC[C@H](CN4CCC5(CC4)CC4(CC(CCNc6cccc7c6C(=O)N(C6CCC(=O)NC6=O)C7=O)C4)C5)CC3)sc2cc1NC(=O)c1cccc(C(F)(F)F)n1` (some centres unmarked) [I-59] the value was 100 to 500 nM.

A further test deals with T3, Aiolos (protein product of gene IKZF3) (Homo sapiens, UniProt Q96SW2+Q9UKT9).
T3 construct: endogenous in cells; host or cells: OCI-LY10
T3 sequence (Q9UKT9 whole entry): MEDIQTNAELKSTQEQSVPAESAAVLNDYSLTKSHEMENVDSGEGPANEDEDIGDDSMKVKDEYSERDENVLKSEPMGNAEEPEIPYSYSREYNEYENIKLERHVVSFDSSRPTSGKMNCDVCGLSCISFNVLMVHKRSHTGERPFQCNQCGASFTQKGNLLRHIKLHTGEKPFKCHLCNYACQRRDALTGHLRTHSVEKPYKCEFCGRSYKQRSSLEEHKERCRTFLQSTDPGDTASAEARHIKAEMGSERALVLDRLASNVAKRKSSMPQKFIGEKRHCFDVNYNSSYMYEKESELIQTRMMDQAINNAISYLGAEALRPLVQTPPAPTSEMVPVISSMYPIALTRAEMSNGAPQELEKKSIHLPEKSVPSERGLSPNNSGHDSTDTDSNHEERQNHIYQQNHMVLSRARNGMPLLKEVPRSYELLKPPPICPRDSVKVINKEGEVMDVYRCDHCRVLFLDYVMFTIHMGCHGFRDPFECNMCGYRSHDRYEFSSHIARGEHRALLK
T3 sequence (Q96SW2 whole entry): as the sequence (Q96SW2 whole entry) above
T3 sequence (Q16531 whole entry partner): as the sequence (Q16531 whole entry partner) above
Description: Quantification of Aiolos degradation in OCI-LY10 cells (quantitative immunoblotting). The format is cell-based. The following applies: 6 h treatment. An outline of the steps:
as §1
For `CC(C)(O)c1cc2nc([C@H]3CC[C@H](CN4CC5(CC(CCNc6cccc7c6C(=O)N(C6CCC(=O)NC6=O)C7=O)C5)C4)CC3)sc2cc1NC(=O)c1cccc(C(F)F)n1` (some centres unmarked) [I-47], the DC50 is less than 50 nM.
The molecule `CN(C[C@H]1CC[C@H](c2nc3cc(C(C)(C)O)c(NC(=O)c4cccc(C(F)(F)F)n4)cc3s2)CC1)[C@H]1CC[C@@H](CNc2cccc3c2C(=O)N(C2CCC(=O)NC2=O)C3=O)CC1` (some centres unmarked) [I-48] returned a DC50 of less than 50 nM.
On the same count and under the same terms, for `CC1(C)OC2(C)c3ccccc3CCN2c2cc3sc([C@H]4CC[C@H](CN5CC6(CC(CCNc7cccc8c7C(=O)N(C7CCC(=O)NC7=O)C8=O)C6)C5)CC4)nc3cc21` (some centres unmarked) [I-49] the value was less than 50 nM; for `CC(C)(O)c1cc2nc([C@H]3CC[C@H](CN4CC5(CC(CCNc6cccc7c6C(=O)N(C6CCC(=O)NC6=O)C7=O)C5)C4)CC3)sc2cc1NC(=O)c1cccc(C(C)(F)F)c1` (some centres unmarked) [I-50], less than 50 nM.
The molecule `CC(C)(O)c1cc2nc([C@H]3CC[C@H](CN4CC5(CC(CCNc6cccc7c6C(=O)N(C6CCC(=O)NC6=O)C7=O)C5)C4)CC3)sc2cc1NC(=O)c1cccc(C(F)(F)F)c1` (some centres unmarked) [I-53] had a DC50 of less than 50 nM.
Same read-out and setting: the result for `CC(C)(O)c1cc2nc([C@H]3CC[C@H](CN4CC5(CC(CCNc6cccc7c6C(=O)N(C6CCC(=O)NC6=O)C7=O)C5)C4)CC3)sc2cc1NC(=O)c1ccnc(C(F)(F)F)n1` (some centres unmarked) [I-54] reads less than 50 nM; that for `CC(C)(O)c1cc2nc([C@H]3CC[C@H](CN4CC5(CC(CCNc6cccc7c6C(=O)N(C6CCC(=O)NC6=O)C7=O)C5)C4)CC3)sc2cc1NC(=O)c1ccc(C(F)(F)F)nn1` (some centres unmarked) [I-55], less than 50 nM; that for `CC(C)(O)c1cc2nc([C@H]3CC[C@H](CN4CCC5(CC4)CC4(CC(CCNc6cccc7c6C(=O)N(C6CCC(=O)NC6=O)C7=O)C4)C5)CC3)sc2cc1NC(=O)c1cccc(C(F)(F)F)n1` (some centres unmarked) [I-59], 100 to 500 nM.
